{"source": "patent US20040229336A1", "about": "“Method for in vitro culture of viruses of the togaviridae and flaviviridae families and uses” (Bio Merieux, priority 1999, published 2004)", "key": {"HCV": {"test_system": "HCV", "assay": "Observation in patients infected both with HIV and with HCV taking HIV protease inhibitors", "type": "in vivo, human", "excerpt": "For this reason, it is advantageous to add to the method of the invention at least one apoptosis-modulating agent."}, "hepatitis C virus": {"test_system": "hepatitis C virus", "assay": "Infection of PLC/PRF/5 cells with HCV-positive serum or LVP fractions, HCV genome in culture supernatants by semi-nested RT-PCR", "type": "cell-based, human", "protocol": "The culture medium used is DMEM medium (marketed by Gibco BRL) supplemented with: 1 mM of sodium pyruvate (Gibco), 1% of nonessential amino acids (Boehringer Mannheim), 2 mM of glutamine (Gibco BRL), 200 U/ml of penicillin (bioMérieux), […] of streptomycin (bioMérieux) and 10% of calf serum (Boehringer).\nThe cells originate from the PLC/PRF/5 cell line (Alexander cells) (ATCC reference: CRL 8024), which is a line established from a human hepatocarcinoma. This line, which has integrated a defective hepatitis B genome, secretes the HBs antigen of the hepatitis B virus but no infectious virus. The cells are cultured in the complete DMEM medium (Gibco-BRL) supplemented with 10% of foetal calf serum, mentioned above. The cells are washed with PBS (Gibco-BRL) preheated to 37° C. 1 ml of DMEM supplemented with 0.2% of BSA (Sigma) and 50 μg/ml of lipoproteins originating from each fraction or 100 μl of serum filtered over a 0.45μ membrane are added. Simultaneously, a solution of oleic acid in isopropanol, prepared beforehand (100 mM), is added in a concentration range of 0.1 to 0.8 mM. The cells are then subjected to incubation for 3 hours at 37° C. under a 5% CO2 atmosphere. The medium is then replaced with complete DMEM medium supplemented with 10% of foetal calf serum. The cells are returned to the incubator under the conditions described above. […]"}, "LSR receptor": {"target": "T1, LSR receptor (Homo sapiens, UniProt Q86X29)", "T1 construct": "endogenous in cells; host or cells: PLC/PRF/5 human hepatocarcinoma cells", "T1 sequence (Q86X29 1-649)": "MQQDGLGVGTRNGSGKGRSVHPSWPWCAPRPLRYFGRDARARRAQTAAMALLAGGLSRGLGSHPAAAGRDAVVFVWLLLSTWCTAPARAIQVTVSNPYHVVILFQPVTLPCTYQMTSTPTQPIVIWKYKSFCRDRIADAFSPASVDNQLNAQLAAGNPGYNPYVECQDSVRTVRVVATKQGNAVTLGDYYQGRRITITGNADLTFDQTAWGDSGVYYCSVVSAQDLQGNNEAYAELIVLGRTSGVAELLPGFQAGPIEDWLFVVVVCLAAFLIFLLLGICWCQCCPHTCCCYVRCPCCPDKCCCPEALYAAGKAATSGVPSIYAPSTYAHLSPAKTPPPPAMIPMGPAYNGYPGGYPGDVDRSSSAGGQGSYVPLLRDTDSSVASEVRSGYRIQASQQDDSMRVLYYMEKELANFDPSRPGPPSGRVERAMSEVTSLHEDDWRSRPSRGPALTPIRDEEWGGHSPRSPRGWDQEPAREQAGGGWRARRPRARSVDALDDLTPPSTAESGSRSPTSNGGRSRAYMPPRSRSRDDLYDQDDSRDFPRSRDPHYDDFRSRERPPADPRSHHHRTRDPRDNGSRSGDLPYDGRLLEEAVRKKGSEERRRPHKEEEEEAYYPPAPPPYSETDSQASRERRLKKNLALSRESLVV", "assay": "Kinetics of attachment of the LVPs to the LSR receptor of hepatocytes (PLC/PRF/5 cells), quantitative RT-PCR of HCV RNA", "type": "cell-based", "settings": "0.5 mM oleate vs without oleate, +4° C., 1 to 9 hours", "protocol": "A fraction containing LVPs with a density of between 1.025 g/ml and 1.055 g/ml was obtained from an HCV-positive serum as described in example 1.\nThe amount of proteins present in the LVP fraction was determined by the Lowry method using the “Protein Assay” kit (Sigma Diagnostics) and the viral titer was evaluated by quantification of the HCV RNA by RT-PCR and real-time fluorescence detection (LightCycler™, Roche) (Wittwer et al., Biotechniques, 22: 176-181 (1997)).\nThe PLC/PRF/5 cell line, described in example 2 and cultured in DMEM medium-10% SVF, was used for studying the attachment of LVPs to the LSR receptor in the presence or absence of oleate.\nThe results were obtained according to the following protocol:\nThe PLC/PRF/5 cells were seeded at 1 million cells/well, so as to obtain, after incubation for 24 hours at 37° C., 5% CO2, approximately 80% confluence.\nTwo washes in cold 1×PBS buffer were carried out, and then 1 ml of cold complete DMEM medium containing 0.2% of BSA is added to the PLC cells maintained on a bed of ice.\nThe LVP fraction (i.e. 10 mg of proteins and 1.7×10^6 of copies of HCV RNA) is added to the cells in the presence or absence of 0.5 mM oleate. […]\nAn incubation was carried out at +4° C. for a period of time ranging from 1 to 9 hours. […] The RNAs were then purified using this same kit and analyzed by quantitative RT-PCR (LightCycler™). […]"}}}
{"compound": "CC(C)c1nc(CN(C)C(=O)N[C@H](C(=O)N[C@@H](Cc2ccccc2)C[C@H](O)[C@H](Cc2ccccc2)NC(=O)OCc2cncs2)C(C)C)cs1", "note": "[Ritonavir]", "values": [{"measurement": "HCV viremia and hepatic cytolysis", "setting": "HCV", "value": "increase in the HCV virema associated with hepatic cytolysis"}]}
{"compound": "CCCCCCCC/C=C\\CCCCCCCC(=O)O", "note": "[oleic acid]", "values": [{"measurement": "pathway for endocytosis of the LVPs at the time of the infection", "setting": "hepatitis C virus; LVP fractions with densities <1.0063, 1.0063-1.063 and >1.063 g/ml", "value": "facilitates the pathway for endocytosis of the LVPs"}, {"measurement": "presence of the HCV genome in the culture supernatants", "setting": "hepatitis C virus; infection with 100 μl of serum of patients no. 1 and no. 2, with vs without 0.5 mM oleic acid", "value": "detected at a higher frequency"}, {"measurement": "attachment of the LVPs to the LSR receptor (number of HCV RNA copies)", "setting": "LSR receptor", "value": "significantly increased"}]}
